Source: ChEMBL document CHEMBL1201861, “Genomics of Drug Sensitity in Cancer screening data, Wellcome Trust Sanger Institute”

What was measured:
Experiment in all cases: cells
A101D = type: functional, cell-based, Homo sapiens; conditions: Homo sapiens, A101D
Description: SANGER: Inhibition of human A101D cell growth in a cell viability assay.

D283 Med = type: functional, cell-based, Homo sapiens; conditions: Homo sapiens, D283 Med
Description: SANGER: Inhibition of human D-283MED cell growth in a cell viability assay.

EKVX = type: functional, cell-based, Homo sapiens; conditions: Homo sapiens, EKVX
Description: SANGER: Inhibition of human EKVX cell growth in a cell viability assay.

NCI-H526 = type: functional, cell-based, Homo sapiens; conditions: Homo sapiens, NCI-H526
Description: SANGER: Inhibition of human NCI-H526 cell growth in a cell viability assay.

LS-411N = type: functional, cell-based, Homo sapiens; conditions: Homo sapiens, LS-411N
HCE-T = type: functional, cell-based, Homo sapiens; conditions: Homo sapiens, HCE-T
Description: SANGER: Inhibition of human HCE-T cell growth in a cell viability assay.

MPP-89 = type: functional, cell-based, Homo sapiens; conditions: Homo sapiens, MPP-89
Description: SANGER: Inhibition of human MPP-89 cell growth in a cell viability assay.

D-247MG = type: functional, cell-based; conditions: Homo sapiens
Description: SANGER: Inhibition of human D-247MG cell growth in a cell viability assay.

SF-268 = type: functional, cell-based, Homo sapiens; conditions: Homo sapiens, SF-268
Description: SANGER: Inhibition of human SF268 cell growth in a cell viability assay.

EW-11 = type: functional, cell-based, Homo sapiens; conditions: Homo sapiens, EW-11
Description: SANGER: Inhibition of human EW-11 cell growth in a cell viability assay.

ACN = type: functional, cell-based, Homo sapiens; conditions: Homo sapiens, ACN
Description: SANGER: Inhibition of human ACN cell growth in a cell viability assay.

NCI-H1304 = type: functional, cell-based, Homo sapiens; conditions: Homo sapiens, NCI-H1304
Description: SANGER: Inhibition of human NCI-H1304 cell growth in a cell viability assay.

GR-ST = type: functional, cell-based, Homo sapiens; conditions: Homo sapiens, GR-ST
Description: SANGER: Inhibition of human GR-ST cell growth in a cell viability assay.

UACC-62 = type: functional, cell-based; conditions: Homo sapiens
Description: SANGER: Inhibition of human UACC-62 cell growth in a cell viability assay.

ETK-1 = type: functional, cell-based, Homo sapiens; conditions: Homo sapiens, ETK-1
Description: SANGER: Inhibition of human ETK-1 cell growth in a cell viability assay.

SJRH30 = type: functional, cell-based; conditions: Homo sapiens
Description: SANGER: Inhibition of human SJRH30 cell growth in a cell viability assay.

SK-N-DZ = type: functional, cell-based, Homo sapiens; conditions: Homo sapiens, SK-N-DZ; read-out: IC50
Description: SANGER: Inhibition of human SK-N-DZ cell growth in a cell viability assay.

KM12 = type: functional, cell-based, Homo sapiens; conditions: Homo sapiens, KM12
Description: SANGER: Inhibition of human KM12 cell growth in a cell viability assay.

AM-38 = type: functional, cell-based, Homo sapiens; conditions: Homo sapiens, AM-38
Description: SANGER: Inhibition of human AM-38 cell growth in a cell viability assay.

Becker = type: functional, cell-based, Homo sapiens; conditions: Homo sapiens, Becker
Description: SANGER: Inhibition of human Becker cell growth in a cell viability assay.

P30-OHK = type: functional, cell-based, Homo sapiens; conditions: Homo sapiens, P30-OHK
Description: SANGER: Inhibition of human P30-OHK cell growth in a cell viability assay.

MHH-PREB-1 = type: functional, cell-based, Homo sapiens; conditions: Homo sapiens, MHH-PREB-1
Description: SANGER: Inhibition of human MHH-PREB-1 cell growth in a cell viability assay.

LB831-BLC = type: functional, cell-based, Homo sapiens; conditions: Homo sapiens, LB831-BLC
Description: SANGER: Inhibition of human LB831-BLC cell growth in a cell viability assay.

NCI-H446 = type: functional, cell-based, Homo sapiens; conditions: Homo sapiens, NCI-H446
Description: SANGER: Inhibition of human NCI-H446 cell growth in a cell viability assay.

TE-5 = type: functional, cell-based, Homo sapiens; conditions: Homo sapiens, TE-5
Description: SANGER: Inhibition of human TE-5 cell growth in a cell viability assay.

COLO-824 = type: functional, cell-based, Homo sapiens; conditions: Homo sapiens, COLO-824
Description: SANGER: Inhibition of human COLO-824 cell growth in a cell viability assay.

D-502MG = type: functional, cell-based, Homo sapiens; conditions: Homo sapiens, D-502MG
Description: SANGER: Inhibition of human D-502MG cell growth in a cell viability assay.

NCI-H1770 = type: functional, cell-based, Homo sapiens; conditions: Homo sapiens, NCI-H1770
Description: SANGER: Inhibition of human NCI-H1770 cell growth in a cell viability assay.

RXF 393 = type: functional, cell-based, Homo sapiens; conditions: Homo sapiens, RXF 393
Description: SANGER: Inhibition of human RXF393 cell growth in a cell viability assay.

MLMA = type: functional, cell-based, Homo sapiens; conditions: Homo sapiens, MLMA
Description: SANGER: Inhibition of human MLMA cell growth in a cell viability assay.

VA-ES-BJ = type: functional, cell-based, Homo sapiens; conditions: Homo sapiens, VA-ES-BJ
Description: SANGER: Inhibition of human VA-ES-BJ cell growth in a cell viability assay.

COLO-668 = type: functional, cell-based, Homo sapiens; conditions: Homo sapiens, COLO-668
Description: SANGER: Inhibition of human COLO-668 cell growth in a cell viability assay.

IA-LM = type: functional, cell-based; conditions: Homo sapiens
Description: SANGER: Inhibition of human IA-LM cell growth in a cell viability assay.

Calu-6 = type: functional, cell-based, Homo sapiens; conditions: Homo sapiens, Calu-6
Description: SANGER: Inhibition of human Calu-6 cell growth in a cell viability assay.

KNS-81-FD = type: functional, cell-based, Homo sapiens; conditions: Homo sapiens, KNS-81-FD
Description: SANGER: Inhibition of human KNS-81-FD cell growth in a cell viability assay.

RERF-LC-MS = type: functional, cell-based; conditions: Homo sapiens
Description: SANGER: Inhibition of human RERF-LC-MS cell growth in a cell viability assay.

TE-6 = type: functional, cell-based, Homo sapiens; conditions: Homo sapiens, TE-6
Description: SANGER: Inhibition of human TE-6 cell growth in a cell viability assay.

LB1047-RCC = type: functional, cell-based, Homo sapiens; conditions: Homo sapiens, LB1047-RCC
Description: SANGER: Inhibition of human LB1047-RCC cell growth in a cell viability assay.

MS-1 = type: functional, cell-based, Homo sapiens; conditions: Homo sapiens, MS-1
Description: SANGER: Inhibition of human MS-1 cell growth in a cell viability assay.

MFM-223 = type: functional, cell-based, Homo sapiens; conditions: Homo sapiens, MFM-223
Description: SANGER: Inhibition of human MFM-223 cell growth in a cell viability assay.

SNB-75 = type: functional, cell-based, Homo sapiens; conditions: Homo sapiens, SNB-75
Description: SANGER: Inhibition of human SNB75 cell growth in a cell viability assay.

BB49-HNC = type: functional, cell-based, Homo sapiens; conditions: Homo sapiens, BB49-HNC
Description: SANGER: Inhibition of human BB49-HNC cell growth in a cell viability assay.

LS-1034 = type: functional, cell-based, Homo sapiens; conditions: Homo sapiens, LS-1034
Description: SANGER: Inhibition of human LS-1034 cell growth in a cell viability assay.

A4-Fuk = type: functional, cell-based, Homo sapiens; conditions: Homo sapiens, A4-Fuk
Description: SANGER: Inhibition of human A4-Fuk cell growth in a cell viability assay.

TGBC1TKB = type: functional, cell-based, Homo sapiens; conditions: Homo sapiens, TGBC1TKB
Description: SANGER: Inhibition of human TGBC1TKB cell growth in a cell viability assay.

## CS(=O)(=O)N1CCN(Cc2cc3nc(-c4cccc5[nH]ncc45)nc(N4CCOCC4)c3s2)CC1 [PICTILISIB]
A101D
  IC50: 0.99 µM
D283 Med
  IC50: 2.36 µM
EKVX
  IC50: 1.01 µM
NCI-H526
  IC50: 1.91 µM
LS-411N
  IC50: > 4 µM
HCE-T
  IC50: > 4 µM
MPP-89
  IC50: > 4 µM
D-247MG
  IC50: > 4 µM
SF-268
  IC50: > 4 µM
EW-11
  IC50: > 4 µM
ACN
  IC50: > 4 µM
NCI-H1304
  IC50: > 4 µM
GR-ST
  IC50: > 4 µM
UACC-62
  IC50: > 4 µM
ETK-1
  IC50: > 4 µM
SJRH30
  IC50: > 4 µM
SK-N-DZ
  IC50: > 4 µM
KM12
  IC50: > 4 µM
AM-38
  IC50: > 4 µM
Becker
  IC50: 3.17 µM
P30-OHK
  IC50: 0.731 µM
MHH-PREB-1
  IC50: 0.114 µM
LB831-BLC
  IC50: > 4 µM
NCI-H446
  IC50: > 4 µM
TE-5
  IC50: > 4 µM
COLO-824
  IC50: > 4 µM
D-502MG
  IC50: 2.32 µM
NCI-H1770
  IC50: 0.124 µM
RXF 393
  IC50: > 4 µM
MLMA
  IC50: > 4 µM
VA-ES-BJ
  IC50: 1.61 µM
COLO-668
  IC50: > 4 µM
IA-LM
  IC50: > 4 µM
Calu-6
  IC50: > 4 µM
KNS-81-FD
  IC50: > 4 µM
RERF-LC-MS
  IC50: > 4 µM
TE-6
  IC50: > 4 µM
LB1047-RCC
  IC50: 0.523 µM
MS-1
  IC50: > 4 µM
MFM-223
  IC50: > 4 µM
SNB-75
  IC50: 2.02 µM
BB49-HNC
  IC50: 1.89 µM
LS-1034
  IC50: > 4 µM
A4-Fuk
  IC50: 1.3 µM
TGBC1TKB
  IC50: > 4 µM
